In patent US20120324604A1, “PESTICIDAL MIXTURES CONTAINING ISOXAZOLINE DERIVATIVES AND A FUNGICIDE” (priority 2010, published 2012):

Assays:
Type in all cases: cell-based
[1] = system: Fusarium culmorum; assay: Fusarium culmorum (Root Rot) growth inhibition, microtiter plate, photometric
Experimental: Fusarium culmorum (Root Rot):
(§1) Conidia of the fungus from cryogenic storage were directly mixed into nutrient broth (potato dextrose broth). After placing a (DMSO) solution of the test compounds into a microtiter plate (96-well format) the nutrient broth containing the fungal spores was added.

[2] = system: Rhizoctonia solani; assay: Rhizoctonia solani (Foot Rot, Damping-Off) growth inhibition, microtiter plate, photometric
Experimental: Rhizoctonia solani (Foot Rot, Damping-Off):
Mycelial fragments of the fungus from cryogenic storage were directly mixed into nutrient broth (potato dextrose broth). After placing a (DMSO) solution of the test compounds into a microtiter plate (96-well format) the nutrient broth containing the fungal spores was added.

[3] = system: Glomerella lagenarium (syn. Colletotrichum lagenarium); assay: Glomerella lagenarium (Anthracnose of Cucurbits) growth inhibition, microtiter plate, photometric; details: alone
Experimental: Glomerella lagenarium (syn. Colletotrichum lagenarium), Anthracnose of Cucurbits:
as §1

[4] = system: Gaeumannomyces graminis; assay: Gaeumannomyces graminis growth inhibition, microtiter plate, photometric
Experimental: Mycelial fragments of the fungus from cryogenic storage were directly mixed into nutrient broth (potato dextrose broth). After placing a (DMSO) solution of the test compounds into a microliter plate (96-well format) the nutrient broth containing the fungal spores was added.

[5] = system: Mycosphaerella arachidis (syn. Cercospora arachidicola); assay: Mycosphaerella arachidis (Brown Leaf Spot of Groundnut) growth inhibition, microtiter plate, photometric; details: alone
Experimental: Mycosphaerella arachidis (syn. Cercospora arachidicola), Brown Leaf Spot of Groundnut (Peanut):
as §1

[6] = system: Septoria tritici; assay: Septoria tritici (Leaf Blotch) growth inhibition, microtiter plate, photometric; details: A5 alone
Experimental: Septoria tritici (Leaf Blotch):
as §1

[7] = system: Pythium ultimum; assay: Pythium ultimum (Damping Off) growth inhibition, microtiter plate, photometric
Experimental: Pythium ultimum (Damping Off):
Mycelial fragments of the fungus, prepared from a fresh liquid culture, were directly mixed into nutrient broth (potato dextrose broth). After placing a (DMSO) solution of the test compounds into a microtiter plate (96-well format) the nutrient broth containing the fungal spores was added.

[8] = single compound at 0.0390625 ppm AI
[9] = single compound at 0.078125 ppm AI
[10] = single compound at 0.15625 ppm AI
[11] = single compound at 0.3125 ppm AI
[12] = single compound at 0.625 ppm AI

Cc1cc(C2=NOC(c3cc(Cl)cc(Cl)c3)(C(F)(F)F)C2)ccc1C(=O)NC1CSC1 (racemic) [A5]
0%: AVERAGE DEAD IN % ([1]; alone, 1.25 PPM AI) | AVERAGE DEAD IN % ([1]; alone, 2.5 PPM AI) | AVERAGE DEAD IN % ([1]; alone, 5 PPM AI) | AVERAGE DEAD IN % ([1]; alone, 10 PPM AI) | AVERAGE DEAD IN % ([1]; alone, 20 PPM AI) | AVERAGE DEAD IN % ([1]; single compound, 0.625 PPM AI, 48 hrs, 24° C.) | AVERAGE DEAD IN % ([1]; single compound, 1.25 PPM AI, 48 hrs, 24° C.) | AVERAGE DEAD IN % ([1]; single compound, 2.5 PPM AI, 48 hrs, 24° C.) | AVERAGE DEAD IN % ([1]; single compound, 5 PPM AI, 48 hrs, 24° C.) | AVERAGE DEAD IN % ([1]; single compound, 10 PPM AI, 48 hrs, 24° C.) | AVERAGE DEAD IN % ([1]; single compound, 20 PPM AI, 48 hrs, 24° C.) | AVERAGE DEAD IN % ([2]; applied alone, 0.0390625 ppm AI) | AVERAGE DEAD IN % ([2]; applied alone, 0.078125 ppm AI) | AVERAGE DEAD IN % ([2]; applied alone, 0.15625 ppm AI) | AVERAGE DEAD IN % ([2]; applied alone, 0.3125 ppm AI) | AVERAGE DEAD IN % ([2]; applied alone, 0.625 ppm AI) | AVERAGE DEAD IN % ([2]; applied alone, 1.25 ppm AI) | AVERAGE DEAD IN % ([2]; applied alone, 2.5 ppm AI) | AVERAGE DEAD IN % ([2]; applied alone, 5 ppm AI) | AVERAGE DEAD IN % ([2]; applied alone, 10 ppm AI) | AVERAGE DEAD IN % ([2]; applied alone, 20 ppm AI) | AVERAGE DEAD IN % ([2]; single compound at 2.5 ppm AI) | AVERAGE DEAD IN % ([3]; 0.0390625 ppm AI) | AVERAGE DEAD IN % ([3]; 0.078125 ppm AI) | AVERAGE DEAD IN % ([3]; 0.15625 ppm AI) | AVERAGE DEAD IN % ([3]; 0.3125 ppm AI) | AVERAGE DEAD IN % ([3]; 0.625 ppm AI) | AVERAGE DEAD IN % ([3]; 1.25 ppm AI) | AVERAGE DEAD IN % ([3]; 2.5 ppm AI) | AVERAGE DEAD IN % ([3]; 5 ppm AI) | AVERAGE DEAD IN % ([3]; 10 ppm AI) | AVERAGE DEAD IN % ([3]; 20 ppm AI) | AVERAGE DEAD IN % [4, 8] | AVERAGE DEAD IN % [4, 9] | AVERAGE DEAD IN % [4, 10] | AVERAGE DEAD IN % [4, 11] | AVERAGE DEAD IN % [4, 12] | AVERAGE DEAD IN % ([4]; single compound at 1.25 ppm AI) | AVERAGE DEAD IN % ([4]; single compound at 2.5 ppm AI) | AVERAGE DEAD IN % ([4]; single compound at 5 ppm AI) | AVERAGE DEAD IN % ([4]; single compound at 10 ppm AI) | AVERAGE DEAD IN % ([4]; single compound at 20 ppm AI) | AVERAGE DEAD IN % ([5]; 0.078125 ppm AI) | AVERAGE DEAD IN % ([5]; 0.15625 ppm AI) | AVERAGE DEAD IN % ([5]; 0.3125 ppm AI) | AVERAGE DEAD IN % ([5]; 0.625 ppm AI) | AVERAGE DEAD IN % ([5]; 1.25 ppm AI) | AVERAGE DEAD IN % ([5]; 2.5 ppm AI) | AVERAGE DEAD IN % ([5]; 5 ppm AI) | AVERAGE DEAD IN % ([5]; 10 ppm AI) | AVERAGE DEAD IN % ([5]; 20 ppm AI) | AVERAGE DEAD IN % ([5]; 0.0390625 PPM AI) | AVERAGE DEAD IN % ([5]; 0.078125 PPM AI) | AVERAGE DEAD IN % ([5]; 0.15625 PPM AI) | AVERAGE DEAD IN % ([5]; 0.3125 PPM AI) | AVERAGE DEAD IN % ([5]; 0.625 PPM AI) | AVERAGE DEAD IN % ([5]; 1.25 PPM AI) | AVERAGE DEAD IN % ([5]; 2.5 PPM AI) | AVERAGE DEAD IN % ([5]; 5 PPM AI) | AVERAGE DEAD IN % ([5]; 10 PPM AI) | AVERAGE DEAD IN % A5 ([6]; 0.0390625 ppm AI) | AVERAGE DEAD IN % A5 ([6]; 0.078125 ppm AI) | AVERAGE DEAD IN % A5 ([6]; 0.15625 ppm AI) | AVERAGE DEAD IN % A5 ([6]; 0.3125 ppm AI) | AVERAGE DEAD IN % A5 ([6]; 0.625 ppm AI) | AVERAGE DEAD IN % A5 ([6]; 1.25 ppm AI) | AVERAGE DEAD IN % A5 ([6]; 2.5 ppm AI) | AVERAGE DEAD IN % A5 ([6]; 5 ppm AI) | AVERAGE DEAD IN % A5 ([6]; 10 ppm AI) | AVERAGE DEAD IN % [7, 8] | AVERAGE DEAD IN % [7, 9] | AVERAGE DEAD IN % [7, 10] | AVERAGE DEAD IN % [7, 11] | AVERAGE DEAD IN % [7, 12] | AVERAGE DEAD IN % ([7]; single compound at 1.25 ppm AI) | AVERAGE DEAD IN % ([7]; single compound at 2.5 ppm AI) | AVERAGE DEAD IN % ([7]; single compound at 5 ppm AI) | AVERAGE DEAD IN % ([7]; single compound at 10 ppm AI) | AVERAGE DEAD IN % ([7]; single compound at 20 ppm AI)
